Measured values from paper PMC7228129, “Evaluation of Developmental Toxicity, Developmental Neurotoxicity, and Tissue Dose in Zebrafish Exposed to GenX and Other PFAS” (Environmental Health Perspectives, 2020).
“Also recorded” adds a separate entry of the source. Read-outs that look alike come from different tables or passages of the source.

Assays:
zebrafish [1] = assay: Developmental toxicity (DevTox) assay; format: in vivo, Danio rerio; settings: for DevTox assay phenotype: Table 5 summary, this study (some rows also list literature); for EC50: Hill fit
Method: (§1) At 0 dpf, zebrafish embryos were bleached as previously described ([Tal et al. 2017]). A single embryo at the dome-to-epiboly stages ([Kimmel et al. 1995]) was placed into each individual well of a 96-well plate containing a 40-μm nylon mesh filter (Millipore, Catalog No. MANMN4010) with 400μL of 10% Hanks’ balanced salt solution (HBSS) per well. Filter inserts containing zebrafish embryos were transferred to 96-well culture trays (Millipore, Catalog No. MAMCS9610) containing 250μL of 10% HBSS ([Westerfield 2007]) and 1μL of 250× working solutions per well. A final concentration of 0.4% DMSO was used for all exposure groups and as a vehicle control. In the case of GenX Free Acid in Study 2 (Figure 1), DI water was used as a vehicle control. Daily, from 1–5 dpf, plates underwent 100% media changes to refresh chemical dosing solutions by blotting (Brandel; Catalog No. FPXLR-196) and transferring mesh inserts containing zebrafish to new bottom plates (Millipore; Catalog No. MAMCS9610). To minimize evaporation, plates were sealed (Biorad; Catalog No. MSA5001) and wrapped with parafilm. Plates were maintained on a 14 h:10 h light cycle at 26.0°C and scored daily for death, malformations, hatching, and swim bladder inflation. At 6 dpf, plates were evaluated by two independent observers and DevTox or DNT assays were performed or media and tissue were collected for analytical chemistry analyses as described below.
In Study 1 (Figure 1), zebrafish were exposed, as described in the “Chemical Exposures” section, to 0.04, 0.1, 0.4, 1.1, 3.1, 9.3, 27.2, or 80.0μM PFOS, PFOA, PFHxS, PFHxA, or ADONA, or 0.4% DMSO. Six 96-well plates were tested with a single chemical concentration included on each microtiter plate. Subsequently, as part of Study 1, zebrafish were exposed to 0.04, 0.1, 0.4, 1.1, 3.1, 9.3, 27.2, or 80.0μM PFESA1, or 0.4% DMSO. In Study 2, GenX Free Acid diluted in DI water was tested by exposing zebrafish to 0.04, 0.1, 0.4, 1.1, 3.1, 9.3, 27.2, or 80.0μM of the compound or DI water. […] Zebrafish were exposed to 1.7, 3.1, 5.5, 9.8, 17.6, 31.4, 56.0, or 100.0μM of PFBS, PFHxS, PFHpS, or PFOS or 0.4% DMSO. Subsequently, zebrafish were exposed to 1.7, 3.1, 5.5, 9.8, 17.6, 31.4, 56.0, or 100.0μM PFPeS, or 0.4% DMSO. Chlorpyrifos was used as positive control for malformations ( 8.0μM ) and lethality ( 80.0μM ) ([Padilla et al. 2012]; [Tal et al. 2017]). To conduct DevTox assay assessments, at 6 dpf, two independent observers evaluated zebrafish larvae for survival, hatching, swim bladder inflation, and malformations, including curved body axis, shortened trunk, pericardial edema, yolk sac edema, necrotic yolk sac, pectoral fin abnormalities and head/jaw abnormalities. Directly after assessments, data were reviewed and, in the case of discrepancies, consensus calls were reached. Toxicity values were assigned to descriptive data (i.e., normal=0 , abnormal=20 , severely abnormal=50 , and dead=100 ), modified from a previously described approach ([Padilla et al. 2012]). Briefly, animals with a single malformation were scored as abnormal, whereas animals with ≥2 malformations were scored as severely abnormal.
For the DevTox assay, a Kruskal-Wallace nonparametric one-way analysis of variance (ANOVA) with a Dunn’s multiple comparison test was used to detect differences between exposure groups (* p<0.05 , ** p<0.0001 ) and LOEC values were determined. If a test for linear trend was significant ( p<0.05 ), with developmental toxicity observed at the highest concentration tested, nonlinear regression was performed with a Hill slope curve fitting for half maximal effective concentration ( EC50 ) value determinations.

zebrafish [2] = settings: Table 5 summary, ref Ulhaq et al. 2013b; cited from earlier work
zebrafish [3] = assay: Developmental neurotoxicity (DNT) assay, light/dark locomotor behavior test; format: in vivo, Danio rerio; settings: for DNT assay phenotype: Table 5 summary, this study (some rows also list literature); for Concentration causing hyperactivity in D1 period: dark 1; for Concentration causing hyperactivity in D1 period / Concentration causing hyperactivity in D2 period / Concentration causing hyperactivity in L1 period / Concentration causing hyperactivity in L2 period: vs 0.4% DMSO; for Concentration causing hyperactivity in D2 period: dark 2; for Concentration causing hyperactivity in L1 period: light 1; for Concentration causing hyperactivity in L2 period: light 2
Method: as §1
To increase the likelihood of observing behavioral effects in morphologically normal larvae, the highest concentration evaluated in the DNT assay was the lowest observed effect concentration (LOEC) determined in DevTox assay. Zebrafish were exposed in parallel to 4.4, 7.9, 14.0, 25.1, 44.8, or 80.0μM PFOA, PFHxS, PFHxA, or ADONA or 0.2, 0.3, 0.6, 1.0, 1.8, or 3.1μM PFOS or 0.4% DMSO. Subsequently, as part of Study 1, exposure to 4.4, 7.9, 14.0, 25.1, 44.8, or 80.0μM PFESA1, or 0.4% DMSO was evaluated. In Study 2, zebrafish were exposed to 4.4, 7.9, 14.0, 25.1, 44.8, or 80.0μM GenX Free Acid, or DI water. In Study 3, to increase the likelihood of observing malformations with shorter-chain compounds at multiple test concentrations, the highest concentration evaluated was 100.0μM . Zebrafish were exposed to 5.5, 9.8, 17.6, 31.4, 56.0, or 100.0μM PFBS; 3.1, 5.5, 9.8, 17.6, 31.4, or 56.0μM PFHxS; 1.7, 3.1, 5.5, 9.8, 17.6, or 31.4μM PFHpS; or 0.5, 1.0, 1.7, 3.1, 5.5, or 9.8μM PFOS, or 0.4% DMSO. Subsequently, as part of Study 3, zebrafish were exposed to 3.1, 5.5, 9.8, 17.6, 31.4, or 56.0μM PFPeS, or 0.4% DMSO. Chemical exposures and assessments were performed daily, as described above. To evaluate swimming behavior in a light/dark behavior test, microtiter plates were placed in a dark, temperature-controlled behavior testing room set to 26.0°C for at least 2 h prior to testing. At the time of testing, microtiter plates were placed on a Noldus tracking apparatus. Locomotor activity was recorded (30 frames/s) for a total of 60 min consisting of a 20-min dark acclimation period (0 lux) that was not analyzed followed by a 40-min testing period consisting of a 20-min light period (5.0 lux) and 20-min dark period (0 lux). Videos were analyzed using Ethovision software (version 3.1; Noldus Information Technology) as previously described ([Jarema et al. 2015]). Locomotor activity was collected for each individual fish for each 2-min period (minimum distance moved, set to 0.135cm ). Thus, for a 40-min test, 20 data points were collected per larvae. […] Four additional criteria for inclusion of individual larvae were applied. One, all larvae that were identified as abnormal, severely abnormal, or dead were excluded. Two, larvae with uninflated swim bladders were removed from analyses. Three, individual larvae that moved <2cm in either […] dark period were removed.

zebrafish [4] = settings: Table 5 summary; zebrafish; ref Hagenaars et al. 2011; Ulhaq et al. 2013a; cited from earlier work
[5] = Study 3, 1.7–100.0 μM daily 0–5 dpf, scored 6 dpf, 0.4% DMSO
[6] = Danio rerio, Study 3, 1.7–100.0 μM daily 0–5 dpf, scored 6 dpf, 0.4% DMSO
[7] = Study 3, daily 0–5 dpf, tested 6 dpf

Structure (SMILES)	Developmental toxicity outcome (zebrafish [1]; [5])	DevTox assay phenotype (zebrafish [1])	DNT assay phenotype (zebrafish [2])	Developmental neurotoxicity / locomotor activity outcome (zebrafish [3]; Study 3, daily 0–5 dpf, tested 6 dpf, 0.4% DMSO)	DNT assay phenotype (zebrafish [3])	DevTox assay phenotype (zebrafish [4])	EC50 (zebrafish [1]; [6]) [µM]	LOEC for developmental toxicity (zebrafish [1]; sulfonic acid PFAS study, 1.7–100.0 μM daily 0–5 dpf, scored 6 dpf, 0.4% DMSO) [µM]	Concentration causing hyperactivity in D1 period (zebrafish [3]; [7])	Concentration causing hyperactivity in D2 period (zebrafish [3]; [7])	Concentration causing hyperactivity in L1 period (zebrafish [3]; [7]) [µM]	Concentration causing hyperactivity in L2 period (zebrafish [3]; [7]) [µM]	EC50 (zebrafish [1]; [5]) [µM]
O=S(=O)(O)C(F)(F)C(F)(F)C(F)(F)C(F)(F)F [PFBS, Perfluorobutanesulfonic acid]	negative	Negative	Hyperactivity	did not result in significant locomotor effects; also recorded: negative	Negative^a	Positive							
O=S(=O)(O)C(F)(F)C(F)(F)C(F)(F)C(F)(F)C(F)(F)C(F)(F)C(F)(F)F [PFHpS, Perfluoroheptanesulfonic acid]		Positive^a			Hyperactivity^a		168	31.4	3.1 to 5.5 µM	no effect	5.5	3.1 to 5.5	
O=S(=O)(O)C(F)(F)C(F)(F)C(F)(F)C(F)(F)C(F)(F)F [PFPeS, Perfluoropentanesulfonic acid]		Positive^a			Hyperactivity^a		48.8		no effect	no effect	5.5	3.1 to 5.5	48.8
